Measured values published in ChEMBL document CHEMBL6109059, “Synthesis and biofilm inhibitory activity of cyclic dinucleotide analogues prepared with macrocyclic ribose-phosphate skeleton” (2025).
Calls of active or inactive are those of the source. No cut-off for these calls is given here.

Experiments:
Escherichia coli [1] = test: Inhibition of biofilm formation in Escherichia coli DH5alpha at 156 uM measured after 24 hrs by crystal violet staining based assay relative to control; format: functional; details: DH5-alpha
Pseudomonas aeruginosa [2] = test: Inhibition of biofilm formation in Pseudomonas aeruginosa NBRC13275 at 156 uM measured after 6 hrs by crystal violet staining based assay relative to control; format: functional
Staphylococcus aureus [3] = test: Inhibition of biofilm formation in Staphylococcus aureus NBRC13276 at 156 uM measured after 24 hrs by crystal violet staining based assay relative to control; format: functional
Escherichia coli [4] = test: Potency index, ratio of compound effect to c-di-GMP effect on inhibition of biofilm formation in Escherichia coli DH5alpha; format: functional
Escherichia coli [5] = test: Antibacterial activity against Escherichia coli DH5alpha; format: functional, organism-based
Staphylococcus aureus [6] = test: Antibacterial activity against Staphylococcus aureus NBRC13276; format: functional, organism-based
Pseudomonas aeruginosa [7] = test: Antibacterial activity against Pseudomonas aeruginosa NBRC13275; format: functional, organism-based

With Nc1nc2c(ncn2[C@@H]2O[C@@H]3COP(=O)(O)O[C@H]4[C@@H](O)[C@H](n5cnc6c(=O)[nH]c(N)nc65)O[C@@H]4COP(=O)(O)O[C@H]3[C@H]2O)c(=O)[nH]1 the inhibition at 156 µM (Escherichia coli [1]) was 12.5% and the inhibition at 156 µM (Pseudomonas aeruginosa [2]) was 52.9%.
O=P1(O)OC[C@H]2O[C@@H](n3cc(-c4ccc(F)c(F)c4)nn3)[C@H](O)[C@@H]2OP(=O)(O)OC[C@H]2O[C@@H](n3cc(-c4ccc(F)c(F)c4)nn3)[C@H](O)[C@@H]2O1 was tested, and the inhibition at 156 µM (Escherichia coli [1]) was 24.4%, the inhibition at 156 µM (Staphylococcus aureus [3]) was 15.9% and the inhibition at 156 µM (Pseudomonas aeruginosa [2]) was 51.4%. For the same molecule, the Ratio (Escherichia coli [4]) was 2, the Activity (Escherichia coli [5]) was “inactive” and the Activity (Staphylococcus aureus [6]) was “inactive”. For the same molecule, the Activity (Pseudomonas aeruginosa [7]) was “inactive”.
With O=P1(O)OC[C@H]2O[C@@H](n3cc(-c4ccc(Br)cc4)nn3)[C@H](O)[C@@H]2OP(=O)(O)OC[C@H]2O[C@@H](n3cc(-c4ccc(Br)cc4)nn3)[C@H](O)[C@@H]2O1 the inhibition at 156 µM (Escherichia coli [1]) was 35.1%, the inhibition at 156 µM (Staphylococcus aureus [3]) was 21.2% and the inhibition at 156 µM (Pseudomonas aeruginosa [2]) was 46%. The Ratio (Escherichia coli [4]) was 2, the Activity (Escherichia coli [5]) was “inactive” and the Activity (Staphylococcus aureus [6]) was “inactive”. The Activity (Pseudomonas aeruginosa [7]) was “inactive”.
In the case of O=P1(O)OC[C@H]2O[C@@H](n3cc(-c4cccc(F)c4)nn3)[C@H](O)[C@@H]2OP(=O)(O)OC[C@H]2O[C@@H](n3cc(-c4cccc(F)c4)nn3)[C@H](O)[C@@H]2O1, the inhibition at 156 µM (Escherichia coli [1]) is reported as 30.6%, the inhibition at 156 µM (Staphylococcus aureus [3]) is reported as 7.15% and the inhibition at 156 µM (Pseudomonas aeruginosa [2]) is reported as 57.7%. For the same molecule, the Ratio (Escherichia coli [4]) was 2, the Activity (Escherichia coli [5]) was “inactive” and the Activity (Staphylococcus aureus [6]) was “inactive”. For the same molecule, the Activity (Pseudomonas aeruginosa [7]) was “inactive”.
With O=P1(O)OC[C@H]2O[C@@H](n3cc(-c4ccccc4)nn3)[C@H](O)[C@@H]2OP(=O)(O)OC[C@H]2O[C@@H](n3cc(-c4ccccc4)nn3)[C@H](O)[C@@H]2O1 the inhibition at 156 µM (Escherichia coli [1]) was 39.9%, the inhibition at 156 µM (Staphylococcus aureus [3]) was 24.1% and the inhibition at 156 µM (Pseudomonas aeruginosa [2]) was 44.2%. The Ratio (Escherichia coli [4]) was 2, the Activity (Escherichia coli [5]) was “inactive” and the Activity (Staphylococcus aureus [6]) was “inactive”. The Activity (Pseudomonas aeruginosa [7]) was “inactive”.
Molecule O=P1(O)OC[C@H]2O[C@@H](n3cc(-c4ccc(F)cc4)nn3)[C@H](O)[C@@H]2OP(=O)(O)OC[C@H]2O[C@@H](n3cc(-c4ccc(F)cc4)nn3)[C@H](O)[C@@H]2O1 has an inhibition at 156 µM (Escherichia coli [1]) of 25.1%, an inhibition at 156 µM (Staphylococcus aureus [3]) of 4.86% and an inhibition at 156 µM (Pseudomonas aeruginosa [2]) of 57.9%. The Ratio (Escherichia coli [4]) was 2, the Activity (Escherichia coli [5]) was “inactive” and the Activity (Staphylococcus aureus [6]) was “inactive”. The Activity (Pseudomonas aeruginosa [7]) was “inactive”.
O=P1(O)OC[C@H]2O[C@@H](n3cc(-c4cc(F)cc(F)c4)nn3)[C@H](O)[C@@H]2OP(=O)(O)OC[C@H]2O[C@@H](n3cc(-c4cc(F)cc(F)c4)nn3)[C@H](O)[C@@H]2O1 showed an inhibition at 156 µM (Escherichia coli [1]) of 45.8%, an inhibition at 156 µM (Staphylococcus aureus [3]) of 8.24% and an inhibition at 156 µM (Pseudomonas aeruginosa [2]) of 47.3%. For the same molecule, the Ratio (Escherichia coli [4]) was 2, the Activity (Escherichia coli [5]) was “inactive” and the Activity (Staphylococcus aureus [6]) was “inactive”. The Activity (Pseudomonas aeruginosa [7]) was “inactive”.
With COc1ccc(-c2cn([C@@H]3O[C@@H]4COP(=O)(O)O[C@H]5[C@@H](O)[C@H](n6cc(-c7ccc(OC)cc7)nn6)O[C@@H]5COP(=O)(O)O[C@H]4[C@H]3O)nn2)cc1 the inhibition at 156 µM (Escherichia coli [1]) was 36.7%, the inhibition at 156 µM (Staphylococcus aureus [3]) was 19% and the inhibition at 156 µM (Pseudomonas aeruginosa [2]) was 53.3%. The Ratio (Escherichia coli [4]) was 2, the Activity (Escherichia coli [5]) was “inactive” and the Activity (Staphylococcus aureus [6]) was “inactive”. For the same molecule, the Activity (Pseudomonas aeruginosa [7]) was “inactive”.
O=P1(O)OC[C@H]2O[C@@H](n3cc(-c4ccncc4)nn3)[C@H](O)[C@@H]2OP(=O)(O)OC[C@H]2O[C@@H](n3cc(-c4ccncc4)nn3)[C@H](O)[C@@H]2O1 showed an inhibition at 156 µM (Escherichia coli [1]) of 34.2%, an inhibition at 156 µM (Staphylococcus aureus [3]) of 39.6% and an inhibition at 156 µM (Pseudomonas aeruginosa [2]) of 21.9%. The Ratio (Escherichia coli [4]) was 2, the Activity (Escherichia coli [5]) was “inactive” and the Activity (Staphylococcus aureus [6]) was “inactive”. For the same molecule, the Activity (Pseudomonas aeruginosa [7]) was “inactive”.
O=P1(O)OC[C@H]2O[C@@H](n3cc(-c4ccccc4F)nn3)[C@H](O)[C@@H]2OP(=O)(O)OC[C@H]2O[C@@H](n3cc(-c4ccccc4F)nn3)[C@H](O)[C@@H]2O1 gave an inhibition at 156 µM (Escherichia coli [1]) of 39.1%, an inhibition at 156 µM (Staphylococcus aureus [3]) of 16% and an inhibition at 156 µM (Pseudomonas aeruginosa [2]) of 59.4%. For the same molecule, the Ratio (Escherichia coli [4]) was 2, the Activity (Escherichia coli [5]) was “inactive” and the Activity (Staphylococcus aureus [6]) was “inactive”. For the same molecule, the Activity (Pseudomonas aeruginosa [7]) was “inactive”.
